Results as given in patent publication US20100099561A1, “HETEROBICYCLIC ALKYLTHIO-BRIDGED ISOXAZOLINES” (E.I. DU PONT DE NEMOURS AND COMPANY, priority 2008, published 2010).

Experiments:
Format in all cases: in vivo
[1] = test system: barnyardgrass (Echinochloa crus-galli); assay: Test A preemergence, barnyardgrass; settings: 0 to 100 scale (0 no effect, 100 complete control)
Method in brief: (§1)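 In a greenhouse, loam–sand potted species were treated with surfactant-formulated compound, preemergence via directed soil spray and postemergence at 2–10 cm height, one- to two-leaf stage. Response assessed visually at about ten days; 100 means complete control.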

[2] = test system: large crabgrass (Digitaria sanguinalis); assay: Test A preemergence, large crabgrass; settings: 0 to 100 scale (0 no effect, 100 complete control)
Method in brief: as §1

[3] = test system: giant foxtail (Setaria faberi); assay: Test A preemergence, giant foxtail; settings: 0 to 100 scale (0 no effect, 100 complete control)
Method in brief: as §1

[4] = test system: morningglory (Ipomoea spp.); assay: Test A preemergence, morningglory; settings: 0 to 100 scale (0 no effect, 100 complete control)
Method in brief: as §1

[5] = test system: pigweed (Amaranthus retroflexus); assay: Test A preemergence, pigweed; settings: 0 to 100 scale (0 no effect, 100 complete control)
Method in brief: as §1

[6] = test system: velvetleaf (Abutilon theophrasti); assay: Test A preemergence, velvetleaf; settings: 0 to 100 scale (0 no effect, 100 complete control)
Method in brief: as §1

[7] = test system: wheat (Triticum aestivum); assay: Test A preemergence, wheat; settings: 0 to 100 scale (0 no effect, 100 complete control)
Method in brief: as §1

corn (Zea mays) [8] = assay: Test A preemergence, corn; settings: 0 to 100 scale (0 no effect, 100 complete control)
Method in brief: as §1

[9] = test system: barnyardgrass (Echinochloa crus-galli); assay: Test A postemergence, barnyardgrass; settings: 0 to 100 scale (0 no effect, 100 complete control)
Method in brief: as §1

[10] = test system: large crabgrass (Digitaria sanguinalis); assay: Test A postemergence, large crabgrass; settings: 0 to 100 scale (0 no effect, 100 complete control)
Method in brief: as §1

[11] = test system: giant foxtail (Setaria faberi); assay: Test A postemergence, giant foxtail; settings: 0 to 100 scale (0 no effect, 100 complete control)
Method in brief: as §1

[12] = test system: morningglory (Ipomoea spp.); assay: Test A postemergence, morningglory; settings: 0 to 100 scale (0 no effect, 100 complete control)
Method in brief: as §1

[13] = test system: pigweed (Amaranthus retroflexus); assay: Test A postemergence, pigweed; settings: 0 to 100 scale (0 no effect, 100 complete control)
Method in brief: as §1

[14] = test system: velvetleaf (Abutilon theophrasti); assay: Test A postemergence, velvetleaf; settings: 0 to 100 scale (0 no effect, 100 complete control)
Method in brief: as §1

[15] = test system: wheat (Triticum aestivum); assay: Test A postemergence, wheat; settings: 0 to 100 scale (0 no effect, 100 complete control)
Method in brief: as §1

corn (Zea mays) [16] = assay: Test A postemergence, corn; settings: 0 to 100 scale (0 no effect, 100 complete control)
Method in brief: as §1

rice (Oryza sativa) = assay: Test B flooded paddy test, rice; settings: Flood, scale 0 to 100
Method in brief: (§2)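 Paddy-water application to 2-leaf plants in pots held under 3 cm of flooding; response is a 0–100 visual control rating against controls after 13 to 15 days, and a dash marks a missing result.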

[17] = test system: umbrella sedge (Cyperus difformis); assay: Test B flooded paddy test, umbrella sedge; settings: Flood, scale 0 to 100
Method in brief: as §2

[18] = test system: ducksalad (Heteranthera limosa); assay: Test B flooded paddy test, ducksalad; settings: Flood, scale 0 to 100
Method in brief: as §2

[19] = test system: barnyardgrass (Echinochloa crus-galli); assay: Test B flooded paddy test, barnyardgrass; settings: Flood
Method in brief: as §2

[20] = 250 g ai/ha, scale 0 to 100 (0 no effect, 100 complete control)

CC1(C)CC(S(=O)(=O)Cc2c(C(F)(F)F)nc3n(c2=O)CCCCC3)=NO1 [Compound 33]
Plant response rating, Barnyardgrass ([1]; 125 g ai/ha): 40 | Plant response rating, Barnyardgrass ([1]; 500 g ai/ha): 90 | Plant response rating, Crabgrass, Large ([2]; 125 g ai/ha): 90 | Plant response rating, Crabgrass, Large ([2]; 500 g ai/ha): 100 | Plant response rating, Foxtail, Giant ([3]; 125 g ai/ha): 90 | Plant response rating, Foxtail, Giant ([3]; 500 g ai/ha): 100 | Plant response rating, Morningglory ([4]; 125 g ai/ha): 20 | Plant response rating, Morningglory ([4]; 500 g ai/ha): 50 | Plant response rating, Pigweed ([5]; 125 g ai/ha): 10 | Plant response rating, Pigweed ([5]; 500 g ai/ha): 100 | Plant response rating, Velvetleaf ([6]; 125 g ai/ha): 30 | Plant response rating, Velvetleaf ([6]; 500 g ai/ha): 60 | Plant response rating, Wheat ([7]; 125 g ai/ha): 0 | Plant response rating, Wheat ([7]; 500 g ai/ha): 50 | Plant response rating, Corn (corn (Zea mays) [8]; 125 g ai/ha): 0 | Plant response rating, Corn (corn (Zea mays) [8]; 500 g ai/ha): 0 | Plant response rating, Barnyardgrass ([9]; 125 g ai/ha): 50 | Plant response rating, Barnyardgrass ([9]; 500 g ai/ha): 80 | Plant response rating, Crabgrass, Large ([10]; 125 g ai/ha): 50 | Plant response rating, Crabgrass, Large ([10]; 500 g ai/ha): 80 | Plant response rating, Foxtail, Giant ([11]; 125 g ai/ha): 70 | Plant response rating, Foxtail, Giant ([11]; 500 g ai/ha): 80 | Plant response rating, Morningglory ([12]; 125 g ai/ha): 40 | Plant response rating, Morningglory ([12]; 500 g ai/ha): 60 | Plant response rating, Pigweed ([13]; 125 g ai/ha): 20 | Plant response rating, Pigweed ([13]; 500 g ai/ha): 50 | Plant response rating, Velvetleaf ([14]; 125 g ai/ha): 0 | Plant response rating, Velvetleaf ([14]; 500 g ai/ha): 20 | Plant response rating, Wheat ([15]; 125 g ai/ha): 0 | Plant response rating, Wheat ([15]; 500 g ai/ha): 40 | Plant response rating, Corn (corn (Zea mays) [16]; 125 g ai/ha): 0 | Plant response rating, Corn (corn (Zea mays) [16]; 500 g ai/ha): 0 | Plant response rating, Rice (rice (Oryza sativa); 31 g ai/ha): 0 | Plant response rating, Rice (rice (Oryza sativa); 62 g ai/ha): 0 | Plant response rating, Rice (rice (Oryza sativa); 125 g ai/ha): 0 | Plant response rating, Rice (rice (Oryza sativa); 250 g ai/ha): 25 | Plant response rating, Sedge, Umbrella ([17]; 31 g ai/ha): 0 | Plant response rating, Sedge, Umbrella ([17]; 62 g ai/ha): 20 | Plant response rating, Sedge, Umbrella ([17]; 125 g ai/ha): 60 | Plant response rating, Sedge, Umbrella ([17]; 250 g ai/ha): 80 | Plant response rating, Ducksalad ([18]; 31 g ai/ha): 0 | Plant response rating, Ducksalad ([18]; 62 g ai/ha): 0 | Plant response rating, Ducksalad ([18]; 125 g ai/ha): 20 | Plant response rating, Ducksalad ([18]; 250 g ai/ha): 50 | Plant response rating, Barnyardgrass ([19]; 31 g ai/ha, scale 0 to 100): 0 | Plant response rating, Barnyardgrass ([19]; 62 g ai/ha, scale 0 to 100): 0 | Plant response rating, Barnyardgrass ([19]; 125 g ai/ha, scale 0 to 100): 0 | Plant response rating, Barnyardgrass [19, 20]: 35

CCn1c(=O)c(CS(=O)(=O)C2=NOC(C)(C)C2)nc2ccccc21 [Compound 28]
Plant response rating, Barnyardgrass ([1]; 125 g ai/ha): 0 | Plant response rating, Barnyardgrass ([1]; 500 g ai/ha): 10 | Plant response rating, Crabgrass, Large ([2]; 125 g ai/ha): 40 | Plant response rating, Crabgrass, Large ([2]; 500 g ai/ha): 50 | Plant response rating, Foxtail, Giant ([3]; 125 g ai/ha): 0 | Plant response rating, Foxtail, Giant ([3]; 500 g ai/ha): 20 | Plant response rating, Morningglory ([4]; 125 g ai/ha): 0 | Plant response rating, Morningglory ([4]; 500 g ai/ha): 0 | Plant response rating, Pigweed ([5]; 125 g ai/ha): 0 | Plant response rating, Pigweed ([5]; 500 g ai/ha): 0 | Plant response rating, Velvetleaf ([6]; 125 g ai/ha): 0 | Plant response rating, Velvetleaf ([6]; 500 g ai/ha): 0 | Plant response rating, Wheat ([7]; 125 g ai/ha): 0 | Plant response rating, Wheat ([7]; 500 g ai/ha): 0 | Plant response rating, Corn (corn (Zea mays) [8]; 125 g ai/ha): 0 | Plant response rating, Corn (corn (Zea mays) [8]; 500 g ai/ha): 0 | Plant response rating, Barnyardgrass ([9]; 125 g ai/ha): 30 | Plant response rating, Barnyardgrass ([9]; 500 g ai/ha): 40 | Plant response rating, Crabgrass, Large ([10]; 125 g ai/ha): 0 | Plant response rating, Crabgrass, Large ([10]; 500 g ai/ha): 50 | Plant response rating, Foxtail, Giant ([11]; 125 g ai/ha): 0 | Plant response rating, Foxtail, Giant ([11]; 500 g ai/ha): 0 | Plant response rating, Morningglory ([12]; 125 g ai/ha): 0 | Plant response rating, Morningglory ([12]; 500 g ai/ha): 0 | Plant response rating, Pigweed ([13]; 125 g ai/ha): 0 | Plant response rating, Pigweed ([13]; 500 g ai/ha): 0 | Plant response rating, Velvetleaf ([14]; 125 g ai/ha): 0 | Plant response rating, Velvetleaf ([14]; 500 g ai/ha): 0 | Plant response rating, Wheat ([15]; 125 g ai/ha): 0 | Plant response rating, Wheat ([15]; 500 g ai/ha): 0 | Plant response rating, Corn (corn (Zea mays) [16]; 125 g ai/ha): 0 | Plant response rating, Corn (corn (Zea mays) [16]; 500 g ai/ha): 0 | Plant response rating, Rice (rice (Oryza sativa); 31 g ai/ha): 0 | Plant response rating, Rice (rice (Oryza sativa); 62 g ai/ha): 0 | Plant response rating, Rice (rice (Oryza sativa); 125 g ai/ha): 0 | Plant response rating, Rice (rice (Oryza sativa); 250 g ai/ha): 0 | Plant response rating, Sedge, Umbrella ([17]; 31 g ai/ha): 0 | Plant response rating, Sedge, Umbrella ([17]; 62 g ai/ha): 0 | Plant response rating, Sedge, Umbrella ([17]; 125 g ai/ha): 0 | Plant response rating, Sedge, Umbrella ([17]; 250 g ai/ha): 0 | Plant response rating, Ducksalad ([18]; 31 g ai/ha): 0 | Plant response rating, Ducksalad ([18]; 62 g ai/ha): 0 | Plant response rating, Ducksalad ([18]; 125 g ai/ha): 0 | Plant response rating, Ducksalad ([18]; 250 g ai/ha): 0 | Plant response rating, Barnyardgrass ([19]; 31 g ai/ha, scale 0 to 100): 0 | Plant response rating, Barnyardgrass ([19]; 62 g ai/ha, scale 0 to 100): 0 | Plant response rating, Barnyardgrass ([19]; 125 g ai/ha, scale 0 to 100): 0 | Plant response rating, Barnyardgrass [19, 20]: 0

CC1(C)CC(S(=O)(=O)Cc2c(C(F)(F)F)nc3cnccn3c2=O)=NO1 [Compound 52]
Plant response rating, Barnyardgrass ([1]; 125 g ai/ha): 20 | Plant response rating, Barnyardgrass ([1]; 500 g ai/ha): 80 | Plant response rating, Crabgrass, Large ([2]; 125 g ai/ha): 20 | Plant response rating, Crabgrass, Large ([2]; 500 g ai/ha): 80 | Plant response rating, Foxtail, Giant ([3]; 125 g ai/ha): 40 | Plant response rating, Foxtail, Giant ([3]; 500 g ai/ha): 90 | Plant response rating, Morningglory ([4]; 125 g ai/ha): 0 | Plant response rating, Morningglory ([4]; 500 g ai/ha): 0 | Plant response rating, Pigweed ([5]; 125 g ai/ha): 0 | Plant response rating, Pigweed ([5]; 500 g ai/ha): 0 | Plant response rating, Velvetleaf ([6]; 125 g ai/ha): 0 | Plant response rating, Velvetleaf ([6]; 500 g ai/ha): 0 | Plant response rating, Wheat ([7]; 125 g ai/ha): 0 | Plant response rating, Wheat ([7]; 500 g ai/ha): 0 | Plant response rating, Corn (corn (Zea mays) [8]; 125 g ai/ha): 0 | Plant response rating, Corn (corn (Zea mays) [8]; 500 g ai/ha): 0 | Plant response rating, Barnyardgrass ([9]; 125 g ai/ha): 30 | Plant response rating, Barnyardgrass ([9]; 500 g ai/ha): 90 | Plant response rating, Crabgrass, Large ([10]; 125 g ai/ha): 20 | Plant response rating, Crabgrass, Large ([10]; 500 g ai/ha): 50 | Plant response rating, Foxtail, Giant ([11]; 125 g ai/ha): 60 | Plant response rating, Foxtail, Giant ([11]; 500 g ai/ha): 80 | Plant response rating, Morningglory ([12]; 125 g ai/ha): 0 | Plant response rating, Morningglory ([12]; 500 g ai/ha): 30 | Plant response rating, Pigweed ([13]; 125 g ai/ha): 0 | Plant response rating, Pigweed ([13]; 500 g ai/ha): 0 | Plant response rating, Velvetleaf ([14]; 125 g ai/ha): 0 | Plant response rating, Velvetleaf ([14]; 500 g ai/ha): 0 | Plant response rating, Wheat ([15]; 125 g ai/ha): 0 | Plant response rating, Wheat ([15]; 500 g ai/ha): 30 | Plant response rating, Corn (corn (Zea mays) [16]; 125 g ai/ha): 0 | Plant response rating, Corn (corn (Zea mays) [16]; 500 g ai/ha): 0 | Plant response rating, Rice (rice (Oryza sativa); 62 g ai/ha): 0 | Plant response rating, Rice (rice (Oryza sativa); 250 g ai/ha): 0 | Plant response rating, Sedge, Umbrella ([17]; 62 g ai/ha): 0 | Plant response rating, Sedge, Umbrella ([17]; 250 g ai/ha): 0 | Plant response rating, Ducksalad ([18]; 62 g ai/ha): 0 | Plant response rating, Ducksalad ([18]; 250 g ai/ha): 0 | Plant response rating, Barnyardgrass ([19]; 62 g ai/ha, scale 0 to 100): 0 | Plant response rating, Barnyardgrass [19, 20]: 0
